Source: patent US7576112B2, “Therapeutic N-aryl or N-heteroaryl pyrazolidine and pyrazolidinone derivatives” (Allergan, Inc., priority 2006, dated 2009)

Assays:
EP4 = EP4 (Homo sapiens, UniProt P35408); assay: EP4 binding (Ki)
From the text: (§1) U.S. patent application Ser. No. 11/553,143, filed on Oct. 26, 2006, incorporated by reference herein, describes the methods used to obtain the in vitro data in the table below.

EP2 [1] = target: T1, EP2 (Homo sapiens, UniProt P43116); assay: EP2 flipr functional assay; type: cell-based
From the text: as §1

EP2 [2] = target: T1, EP2; assay: EP2 cAMP assay; type: cell-based
From the text: as §1

EP2 [3] = target: T1, EP2; assay: EP2 binding (Ki)
From the text: as §1

hEP3A = target: T2, hEP3A (Homo sapiens, UniProt P43115); assay: Other receptors functional assay, hEP3A; type: cell-based
T2 sequence (P43115 1-390): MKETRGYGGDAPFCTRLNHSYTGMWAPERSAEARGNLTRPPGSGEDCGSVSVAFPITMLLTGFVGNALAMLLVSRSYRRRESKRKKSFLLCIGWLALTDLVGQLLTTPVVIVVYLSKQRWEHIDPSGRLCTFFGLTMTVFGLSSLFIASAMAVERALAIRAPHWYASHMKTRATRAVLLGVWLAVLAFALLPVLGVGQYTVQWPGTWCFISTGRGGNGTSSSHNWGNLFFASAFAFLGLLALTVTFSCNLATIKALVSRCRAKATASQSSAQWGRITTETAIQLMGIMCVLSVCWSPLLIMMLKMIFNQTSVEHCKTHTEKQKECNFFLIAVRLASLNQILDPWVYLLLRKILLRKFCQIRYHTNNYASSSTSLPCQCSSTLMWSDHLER
From the text: as §1

T1 sequence (P43116 whole entry): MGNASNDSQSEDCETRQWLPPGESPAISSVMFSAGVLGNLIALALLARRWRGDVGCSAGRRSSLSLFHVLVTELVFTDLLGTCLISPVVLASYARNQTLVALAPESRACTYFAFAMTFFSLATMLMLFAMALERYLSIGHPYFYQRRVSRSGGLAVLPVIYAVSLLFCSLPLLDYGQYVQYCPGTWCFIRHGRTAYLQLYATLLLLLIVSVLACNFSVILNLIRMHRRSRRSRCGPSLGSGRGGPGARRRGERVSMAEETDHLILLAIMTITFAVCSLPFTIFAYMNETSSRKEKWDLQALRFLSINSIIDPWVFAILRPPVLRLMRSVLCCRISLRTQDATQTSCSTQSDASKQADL
Sequence of EP4 (P35408 whole entry): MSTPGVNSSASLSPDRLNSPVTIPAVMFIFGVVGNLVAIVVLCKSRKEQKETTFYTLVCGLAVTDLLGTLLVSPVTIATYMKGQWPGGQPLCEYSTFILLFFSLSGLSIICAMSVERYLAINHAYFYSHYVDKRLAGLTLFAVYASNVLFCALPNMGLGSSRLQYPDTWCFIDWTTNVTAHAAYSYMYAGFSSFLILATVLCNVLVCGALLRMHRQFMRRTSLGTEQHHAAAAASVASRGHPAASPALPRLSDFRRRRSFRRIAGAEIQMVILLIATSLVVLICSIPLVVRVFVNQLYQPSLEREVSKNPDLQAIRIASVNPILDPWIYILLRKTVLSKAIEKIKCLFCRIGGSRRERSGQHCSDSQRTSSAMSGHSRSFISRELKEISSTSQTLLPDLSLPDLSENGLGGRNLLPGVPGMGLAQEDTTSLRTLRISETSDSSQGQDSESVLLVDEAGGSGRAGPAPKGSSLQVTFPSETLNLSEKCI

CCCCC[C@H](O)c1ccc(N2C(=O)CCN2CCCc2ccc(C(=O)O)s2)cc1 (stereo in doubt) [5-(3-(2-(4-(1-hydroxyhexyl)phenyl)-3-oxopyrazolidin-1-yl)propyl)thiophene-2-carboxylic Acid]
Ki (EP4): > 10 µM
EC50 (EP2 [1]): 0.079 µM
EC50 (EP2 [2]): 0.0018 µM
Ki (EP2 [3]): 0.251 µM
EC50 (hEP3A): 5070 nM
